Numbers after ± are expanded uncertainties.

The data set in a line: activity coefficient (dimensionless); of the first substance listed, at infinite dilution; xn = mol fraction of the nth substance listed. Conditions: 101 kPa, Liquid, Chromatography, x1 = 0.

Regarding `CCC[N+](=O)[O-]` [1-nitropropane] + COCC[N+]1(C)CCCC1.O=S(=O)([N-]S(=O)(=O)C(F)(F)F)C(F)(F)F, the activity coefficient runs as follows: (318.15 K) 0.74 ± 0.05; (328.15 K) 0.742 ± 0.049; (338.15 K) 0.743 ± 0.049; (348.15 K) 0.744 ± 0.049; (358.15 K) 0.746 ± 0.049; (368.15 K) 0.747 ± 0.049.
Turning to `C1CCCCC1` [cyclohexane] + COCC[N+]1(C)CCCC1.O=S(=O)([N-]S(=O)(=O)C(F)(F)F)C(F)(F)F, the activity coefficient was found to be 11.1 ± 0.8 (318.15 K); 10.4 ± 0.7 (328.15 K); 9.69 ± 0.66 (338.15 K); 9.22 ± 0.63 (348.15 K); 8.65 ± 0.59 (358.15 K); 8.23 ± 0.56 (368.15 K).
For `Cc1ccccc1C` [1,2-dimethylbenzene] + COCC[N+]1(C)CCCC1.O=S(=O)([N-]S(=O)(=O)C(F)(F)F)C(F)(F)F, the activity coefficient worked out at 1.94 ± 0.13 (318.15 K); 1.96 ± 0.13 (328.15 K); 1.97 ± 0.13 (338.15 K); 1.98 ± 0.13 (348.15 K); 1.99 ± 0.14 (358.15 K); 2 ± 0.14 (368.15 K).
`CC(C)O` [propan-2-ol] + COCC[N+]1(C)CCCC1.O=S(=O)([N-]S(=O)(=O)C(F)(F)F)C(F)(F)F: the activity coefficient (318.15 K) amounted to 2 ± 0.14; the activity coefficient (328.15 K) amounted to 1.83 ± 0.12; the activity coefficient (338.15 K) was 1.67 ± 0.11; the activity coefficient (348.15 K) is 1.54 ± 0.1; the activity coefficient (358.15 K) came out at 1.43 ± 0.09; the activity coefficient (368.15 K) was 1.34 ± 0.09.
Turning to `CCC(=O)CC` [pentan-3-one] + COCC[N+]1(C)CCCC1.O=S(=O)([N-]S(=O)(=O)C(F)(F)F)C(F)(F)F, the activity coefficient is, setting by setting: (318.15 K) 0.831 ± 0.054; (328.15 K) 0.851 ± 0.055; (338.15 K) 0.871 ± 0.056; (348.15 K) 0.887 ± 0.056; (358.15 K) 0.905 ± 0.057; (368.15 K) 0.919 ± 0.058.
On to `CCCO` [propan-1-ol] + COCC[N+]1(C)CCCC1.O=S(=O)([N-]S(=O)(=O)C(F)(F)F)C(F)(F)F, for which the activity coefficient runs as follows: (318.15 K) 2.2 ± 0.15; (328.15 K) 2.02 ± 0.14; (338.15 K) 1.86 ± 0.13; (348.15 K) 1.71 ± 0.11; (358.15 K) 1.58 ± 0.1; (368.15 K) 1.48 ± 0.1.
On to `CC(C)CO` [2-methyl-1-propanol] + COCC[N+]1(C)CCCC1.O=S(=O)([N-]S(=O)(=O)C(F)(F)F)C(F)(F)F, for which the activity coefficient runs as follows: (318.15 K) 2.76 ± 0.19; (328.15 K) 2.46 ± 0.17; (338.15 K) 2.2 ± 0.15; (348.15 K) 2.01 ± 0.14; (358.15 K) 1.84 ± 0.12; (368.15 K) 1.7 ± 0.11.
On to `CCCC=O` [butanal] + COCC[N+]1(C)CCCC1.O=S(=O)([N-]S(=O)(=O)C(F)(F)F)C(F)(F)F, for which the activity coefficient (318.15 K) came out at 0.808 ± 0.052; the activity coefficient (328.15 K) was 0.823 ± 0.053; the activity coefficient (338.15 K) came to 0.838 ± 0.054; the activity coefficient (348.15 K) is 0.851 ± 0.055; the activity coefficient (358.15 K) came to 0.864 ± 0.055; the activity coefficient (368.15 K) worked out at 0.876 ± 0.056.
As to `CC(C)OC(C)C` [diisopropyl ether] + COCC[N+]1(C)CCCC1.O=S(=O)([N-]S(=O)(=O)C(F)(F)F)C(F)(F)F, the activity coefficient is, setting by setting: (318.15 K) 6.63 ± 0.45; (328.15 K) 6.55 ± 0.45; (338.15 K) 6.46 ± 0.44; (348.15 K) 6.39 ± 0.44; (358.15 K) 6.31 ± 0.43; (368.15 K) 6.23 ± 0.42.
In the case of `CC1CCCCC1` [methylcyclohexane] + COCC[N+]1(C)CCCC1.O=S(=O)([N-]S(=O)(=O)C(F)(F)F)C(F)(F)F, the activity coefficient is, setting by setting: (318.15 K) 15.4 ± 1.1; (328.15 K) 14.4 ± 1; (338.15 K) 13.5 ± 0.9; (348.15 K) 12.7 ± 0.9; (358.15 K) 12 ± 0.8; (368.15 K) 11.2 ± 0.8.
Turning to `CCCC(C)=O` [pentan-2-one] + COCC[N+]1(C)CCCC1.O=S(=O)([N-]S(=O)(=O)C(F)(F)F)C(F)(F)F, the activity coefficient by setting is: (318.15 K) 0.83 ± 0.05; (328.15 K) 0.84 ± 0.05; (338.15 K) 0.86 ± 0.06; (348.15 K) 0.87 ± 0.06; (358.15 K) 0.89 ± 0.06; (368.15 K) 0.9 ± 0.06.
On to `CC#N` [acetonitrile] + COCC[N+]1(C)CCCC1.O=S(=O)([N-]S(=O)(=O)C(F)(F)F)C(F)(F)F, for which the activity coefficient is 0.467 ± 0.036 (318.15 K); 0.469 ± 0.037 (328.15 K); 0.472 ± 0.037 (338.15 K); 0.474 ± 0.037 (348.15 K); 0.477 ± 0.037 (358.15 K); 0.479 ± 0.037 (368.15 K).
`CCCCCCCC` [octane] + COCC[N+]1(C)CCCC1.O=S(=O)([N-]S(=O)(=O)C(F)(F)F)C(F)(F)F: the activity coefficient is 40.5 ± 2.8 (318.15 K); 36.9 ± 2.5 (328.15 K); 33.9 ± 2.3 (338.15 K); 31.4 ± 2.1 (348.15 K); 29 ± 2 (358.15 K); 27 ± 1.8 (368.15 K).
As for `C=CCCCCC` [1-heptene] + COCC[N+]1(C)CCCC1.O=S(=O)([N-]S(=O)(=O)C(F)(F)F)C(F)(F)F, the activity coefficient runs as follows: (318.15 K) 14.1 ± 1; (328.15 K) 13.4 ± 0.9; (338.15 K) 12.9 ± 0.9; (348.15 K) 12.3 ± 0.8; (358.15 K) 11.8 ± 0.8; (368.15 K) 11.4 ± 0.8.
Take `CCC(C)CC` [3-methylpentane] + COCC[N+]1(C)CCCC1.O=S(=O)([N-]S(=O)(=O)C(F)(F)F)C(F)(F)F: the activity coefficient by setting is: (318.15 K) 16.6 ± 1.1; (328.15 K) 15.6 ± 1.1; (338.15 K) 14.8 ± 1; (348.15 K) 14.1 ± 1; (358.15 K) 13.5 ± 0.9; (368.15 K) 12.8 ± 0.9.
Consider `CCc1ccccc1` [ethylbenzene] + COCC[N+]1(C)CCCC1.O=S(=O)([N-]S(=O)(=O)C(F)(F)F)C(F)(F)F, for which the activity coefficient by setting is: (318.15 K) 2.23 ± 0.15; (328.15 K) 2.24 ± 0.15; (338.15 K) 2.24 ± 0.15; (348.15 K) 2.25 ± 0.15; (358.15 K) 2.25 ± 0.15; (368.15 K) 2.26 ± 0.15.
For the compound `CCC(C)O` (stereo not given) [butan-2-ol] + COCC[N+]1(C)CCCC1.O=S(=O)([N-]S(=O)(=O)C(F)(F)F)C(F)(F)F, the activity coefficient reads like this: (318.15 K) 2.4 ± 0.2; (328.15 K) 2.19 ± 0.15; (338.15 K) 2 ± 0.14; (348.15 K) 1.85 ± 0.12; (358.15 K) 1.72 ± 0.12; (368.15 K) 1.61 ± 0.11.
Regarding `C=CCCCC` [hex-1-ene] + COCC[N+]1(C)CCCC1.O=S(=O)([N-]S(=O)(=O)C(F)(F)F)C(F)(F)F, the activity coefficient by setting is: (318.15 K) 9.74 ± 0.66; (328.15 K) 9.34 ± 0.64; (338.15 K) 8.92 ± 0.61; (348.15 K) 8.61 ± 0.59; (358.15 K) 8.24 ± 0.56; (368.15 K) 7.96 ± 0.54.
As for `CCCCC` [pentane] + COCC[N+]1(C)CCCC1.O=S(=O)([N-]S(=O)(=O)C(F)(F)F)C(F)(F)F, the activity coefficient is, setting by setting: (318.15 K) 13.4 ± 0.9; (328.15 K) 12.7 ± 0.9; (338.15 K) 12.1 ± 0.8; (348.15 K) 11.5 ± 0.8; (358.15 K) 11 ± 0.8; (368.15 K) 10.5 ± 0.7.
Turning to `CCCCCCCCC` [nonane] + COCC[N+]1(C)CCCC1.O=S(=O)([N-]S(=O)(=O)C(F)(F)F)C(F)(F)F, the activity coefficient (318.15 K) was found to be 58.1 ± 4; the activity coefficient (328.15 K) came out at 52.9 ± 3.6; the activity coefficient (338.15 K) came to 48.4 ± 3.3; the activity coefficient (348.15 K) came out at 44.3 ± 3; the activity coefficient (358.15 K) is 41 ± 2.8; the activity coefficient (368.15 K) worked out at 37.8 ± 2.6.
As to `CCCC(=O)OC` [methyl butanoate] + COCC[N+]1(C)CCCC1.O=S(=O)([N-]S(=O)(=O)C(F)(F)F)C(F)(F)F, the activity coefficient (318.15 K) was 1.29 ± 0.08; the activity coefficient (328.15 K) came to 1.31 ± 0.09; the activity coefficient (338.15 K) stood at 1.33 ± 0.09; the activity coefficient (348.15 K) is 1.35 ± 0.09; the activity coefficient (358.15 K) amounted to 1.36 ± 0.09; the activity coefficient (368.15 K) was 1.38 ± 0.09.
As to `CCCCCCCCCC` [decane] + COCC[N+]1(C)CCCC1.O=S(=O)([N-]S(=O)(=O)C(F)(F)F)C(F)(F)F, the activity coefficient by setting is: (318.15 K) 83.1 ± 5.7; (328.15 K) 75.5 ± 5.2; (338.15 K) 68.1 ± 4.7; (348.15 K) 61.8 ± 4.2; (358.15 K) 56.1 ± 3.8; (368.15 K) 51.3 ± 3.5.
`C1COCCO1` [1,4-dioxane] + COCC[N+]1(C)CCCC1.O=S(=O)([N-]S(=O)(=O)C(F)(F)F)C(F)(F)F: the activity coefficient (318.15 K) is 0.66 ± 0.05; the activity coefficient (328.15 K) amounted to 0.68 ± 0.05; the activity coefficient (338.15 K) was determined as 0.7 ± 0.05; the activity coefficient (348.15 K) was found to be 0.72 ± 0.05; the activity coefficient (358.15 K) was 0.74 ± 0.05; the activity coefficient (368.15 K) turned out to be 0.76 ± 0.05.
For the compound `C=CCCCCCC` [oct-1-ene] + COCC[N+]1(C)CCCC1.O=S(=O)([N-]S(=O)(=O)C(F)(F)F)C(F)(F)F, the activity coefficient is, setting by setting: (318.15 K) 20.8 ± 1.4; (328.15 K) 19.5 ± 1.3; (338.15 K) 18.2 ± 1.2; (348.15 K) 17.3 ± 1.2; (358.15 K) 16.3 ± 1.1; (368.15 K) 15.6 ± 1.1.
Turning to `Cc1cccc(C)c1` [1,3-dimethylbenzene] + COCC[N+]1(C)CCCC1.O=S(=O)([N-]S(=O)(=O)C(F)(F)F)C(F)(F)F, the activity coefficient reads like this: (318.15 K) 2.14 ± 0.15; (328.15 K) 2.16 ± 0.15; (338.15 K) 2.17 ± 0.15; (348.15 K) 2.19 ± 0.15; (358.15 K) 2.2 ± 0.15; (368.15 K) 2.22 ± 0.15.
